The values that follow come from article PMC3493702 (Cornea, 2013).

For data set [1] the following is noted: corneal permeability, literature value; cited from earlier work.
Data set [2] can be described thus: in vitro. The following applies: rabbit, Ptot (apparent permeability coefficient) [corneal permeability].

With `OC[C@@H](O)[C@@H](O)[C@H](O)[C@H](O)CO` [mannitol], the Ptot in data set [1] was 24 nm/s.
What is called Papp is a coefficient for how fast a substance crosses the barrier. Regarding `CC(CO)(CO)[N+](=O)[O-]` [MNPD, 2-methyl-2-nitro-1,3-propanediol], the Papp at 120 min, 100 mM in data set [2] amounted to 43.7 nm/s.
